Experimental data published in the supplement of paper PMC10883282.
± gives the standard deviation of the averaged measurements.

How the values were obtained:
Experiment in all cases: relative viability vs DMSO control (72 h) (fraction); higher = more viable cells
RD = test system: RD
How it was run: (§1)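 Sarcoma cell lines in 384-well plates, seeded to reach 80–90% confluence, were given compound after 24 h and kept 72 h at 37 °C, 5% CO2, with 0.1% DMSO vehicle and a 5 µM positive control. Relative viability came from ATPLite as percent growth, averaged over up to triplicate wells. On the rescaled values, 1 equals full and 0 equals none.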

SK-ES-1 = test system: SK-ES-1
How it was run: as §1

HT1080 = test system: HT1080
How it was run: as §1

KHOS-240S = test system: KHOS-240S
How it was run: as §1

SK-LMS-1 = test system: SK-LMS-1
How it was run: as §1

VA-ES-BJ = test system: VA-ES-BJ
How it was run: as §1

MES-SA = test system: MES-SA
How it was run: as §1

G401 = test system: G401
How it was run: as §1

SW1353 = test system: SW1353
How it was run: as §1

RD-ES = test system: RD-ES
How it was run: as §1

SYO-1 = test system: SYO-1
How it was run: as §1

SW982 = test system: SW982
How it was run: as §1

SMILES: CCN1C(=O)N(c2c(F)c(OC)cc(OC)c2F)Cc2cnc3[nH]c(CN4CCOCC4)cc3c21 [Pemigatinib]
- relative viability (RD; 0.00017 µM): 1.02 ± 0.028
- relative viability (RD; 0.00051 µM): 1.07 ± 0.051
- relative viability (RD; 0.00152 µM): 1.06 ± 0.051
- relative viability (RD; 0.00457 µM): 1.06 ± 0.052
- relative viability (RD; 0.01372 µM): 1.04 ± 0.053
- relative viability (RD; 0.04115 µM): 1.04 ± 0.052
- relative viability (RD; 0.1235 µM): 1.03 ± 0.033
- relative viability (RD; 0.3704 µM): 1.04 ± 0.041
- relative viability (RD; 1.111 µM): 0.946 ± 0.022
- relative viability (RD; 3.333 µM): 0.7043 ± 0.0051
- relative viability (RD; 10 µM): 0.665 ± 0.013
- relative viability (SK-ES-1; 0.00017 µM): 0.969 ± 0.028
- relative viability (SK-ES-1; 0.00051 µM): 0.963 ± 0.041
- relative viability (SK-ES-1; 0.00152 µM): 0.989 ± 0.04
- relative viability (SK-ES-1; 0.00457 µM): 0.965 ± 0.034
- relative viability (SK-ES-1; 0.01372 µM): 0.935 ± 0.021
- relative viability (SK-ES-1; 0.04115 µM): 0.972 ± 0.043
- relative viability (SK-ES-1; 0.1235 µM): 0.89 ± 0.054
- relative viability (SK-ES-1; 0.3704 µM): 0.816 ± 0.034
- relative viability (SK-ES-1; 1.111 µM): 0.599 ± 0.021
- relative viability (SK-ES-1; 3.333 µM): 0.354 ± 0.012
- relative viability (SK-ES-1; 10 µM): 0.2767 ± 0.0018
- relative viability (HT1080; 0.00017 µM): 1.05 ± 0.027
- relative viability (HT1080; 0.00051 µM): 1.09 ± 0.054
- relative viability (HT1080; 0.00152 µM): 1.06 ± 0.033
- relative viability (HT1080; 0.00457 µM): 1.06 ± 0.067
- relative viability (HT1080; 0.01372 µM): 1.036 ± 0.0098
- relative viability (HT1080; 0.04115 µM): 1.1 ± 0.021
- relative viability (HT1080; 0.1235 µM): 1.09 ± 0.064
- relative viability (HT1080; 0.3704 µM): 1.07 ± 0.017
- relative viability (HT1080; 1.111 µM): 1.104 ± 0.003
- relative viability (HT1080; 3.333 µM): 0.875 ± 0.012
- relative viability (HT1080; 10 µM): 0.807 ± 0.0091
- relative viability (KHOS-240S; 0.00017 µM): 1.03 ± 0.016
- relative viability (KHOS-240S; 0.00051 µM): 1.03 ± 0.046
- relative viability (KHOS-240S; 0.00152 µM): 0.999 ± 0.029
- relative viability (KHOS-240S; 0.00457 µM): 1 ± 0.038
- relative viability (KHOS-240S; 0.01372 µM): 0.943 ± 0.019
- relative viability (KHOS-240S; 0.04115 µM): 0.917 ± 0.021
- relative viability (KHOS-240S; 0.1235 µM): 0.884 ± 0.0099
- relative viability (KHOS-240S; 0.3704 µM): 0.862 ± 0.025
- relative viability (KHOS-240S; 1.111 µM): 0.841 ± 0.03
- relative viability (KHOS-240S; 3.333 µM): 0.789 ± 0.024
- relative viability (KHOS-240S; 10 µM): 0.687 ± 0.027
- relative viability (SK-LMS-1; 0.00017 µM): 1.05 ± 0.017
- relative viability (SK-LMS-1; 0.00051 µM): 1.09 ± 0.011
- relative viability (SK-LMS-1; 0.00152 µM): 1.105 ± 0.004
- relative viability (SK-LMS-1; 0.00457 µM): 1.08 ± 0.022
- relative viability (SK-LMS-1; 0.01372 µM): 1.09 ± 0.049
- relative viability (SK-LMS-1; 0.04115 µM): 1.07 ± 0.012
- relative viability (SK-LMS-1; 0.1235 µM): 1.07 ± 0.07
- relative viability (SK-LMS-1; 0.3704 µM): 1.07 ± 0.026
- relative viability (SK-LMS-1; 1.111 µM): 0.9589 ± 0.0065
- relative viability (SK-LMS-1; 3.333 µM): 0.667 ± 0.042
- relative viability (SK-LMS-1; 10 µM): 0.528 ± 0.021
- relative viability (VA-ES-BJ; 0.00017 µM): 1.02 ± 0.011
- relative viability (VA-ES-BJ; 0.00051 µM): 1.03 ± 0.021
- relative viability (VA-ES-BJ; 0.00152 µM): 1.023 ± 0.008
- relative viability (VA-ES-BJ; 0.00457 µM): 1.011 ± 0.0039
- relative viability (VA-ES-BJ; 0.01372 µM): 1.04 ± 0.037
- relative viability (VA-ES-BJ; 0.04115 µM): 1.05 ± 0.022
- relative viability (VA-ES-BJ; 0.1235 µM): 1.036 ± 0.0072
- relative viability (VA-ES-BJ; 0.3704 µM): 1.04 ± 0.02
- relative viability (VA-ES-BJ; 1.111 µM): 0.956 ± 0.023
- relative viability (VA-ES-BJ; 3.333 µM): 0.775 ± 0.029
- relative viability (VA-ES-BJ; 10 µM): 0.702 ± 0.016
- relative viability (MES-SA; 0.00017 µM): 0.912 ± 0.032
- relative viability (MES-SA; 0.00051 µM): 0.9387 ± 0.0089
- relative viability (MES-SA; 0.00152 µM): 0.937 ± 0.017
- relative viability (MES-SA; 0.00457 µM): 0.914 ± 0.042
- relative viability (MES-SA; 0.01372 µM): 0.91 ± 0.022
- relative viability (MES-SA; 0.04115 µM): 0.826 ± 0.054
- relative viability (MES-SA; 0.1235 µM): 0.732 ± 0.037
- relative viability (MES-SA; 0.3704 µM): 0.7701 ± 0.0064
- relative viability (MES-SA; 1.111 µM): 0.641 ± 0.0089
- relative viability (MES-SA; 3.333 µM): 0.397 ± 0.0085
- relative viability (MES-SA; 10 µM): 0.376 ± 0.008
- relative viability (G401; 0.00017 µM): 0.978 ± 0.036
- relative viability (G401; 0.00051 µM): 0.982 ± 0.011
- relative viability (G401; 0.00152 µM): 0.93 ± 0.028
- relative viability (G401; 0.00457 µM): 0.8789 ± 0.0083
- relative viability (G401; 0.01372 µM): 0.746 ± 0.034
- relative viability (G401; 0.04115 µM): 0.7 ± 0.02
- relative viability (G401; 0.1235 µM): 0.614 ± 0.015
- relative viability (G401; 0.3704 µM): 0.585 ± 0.042
- relative viability (G401; 1.111 µM): 0.518 ± 0.0062
- relative viability (G401; 3.333 µM): 0.379 ± 0.0057
- relative viability (G401; 10 µM): 0.349 ± 0.0097
- relative viability (SW1353; 0.00017 µM): 1.06 ± 0.042
- relative viability (SW1353; 0.00051 µM): 1.02 ± 0.014
- relative viability (SW1353; 0.00152 µM): 1.02 ± 0.04
- relative viability (SW1353; 0.00457 µM): 0.964 ± 0.024
- relative viability (SW1353; 0.01372 µM): 0.886 ± 0.012
- relative viability (SW1353; 0.04115 µM): 0.879 ± 0.011
- relative viability (SW1353; 0.1235 µM): 0.863 ± 0.036
- relative viability (SW1353; 0.3704 µM): 0.843 ± 0.051
- relative viability (SW1353; 1.111 µM): 0.836 ± 0.014
- relative viability (SW1353; 3.333 µM): 0.716 ± 0.015
- relative viability (SW1353; 10 µM): 0.539 ± 0.011
- relative viability (RD-ES; 0.00017 µM): 0.959 ± 0.03
- relative viability (RD-ES; 0.00051 µM): 0.951 ± 0.036
- relative viability (RD-ES; 0.00152 µM): 0.953 ± 0.041
- relative viability (RD-ES; 0.00457 µM): 0.959 ± 0.015
- relative viability (RD-ES; 0.01372 µM): 0.964 ± 0.016
- relative viability (RD-ES; 0.04115 µM): 0.955 ± 0.021
- relative viability (RD-ES; 0.1235 µM): 0.952 ± 0.012
- relative viability (RD-ES; 0.3704 µM): 0.958 ± 0.051
- relative viability (RD-ES; 1.111 µM): 0.859 ± 0.014
- relative viability (RD-ES; 3.333 µM): 0.7215 ± 0.0045
- relative viability (RD-ES; 10 µM): 0.54 ± 0.028
- relative viability (SYO-1; 0.00017 µM): 0.97 ± 0.0037
- relative viability (SYO-1; 0.00051 µM): 0.962 ± 0.03
- relative viability (SYO-1; 0.00152 µM): 0.89 ± 0.055
- relative viability (SYO-1; 0.00457 µM): 0.86 ± 0.055
- relative viability (SYO-1; 0.01372 µM): 0.774 ± 0.1
- relative viability (SYO-1; 0.04115 µM): 0.763 ± 0.067
- relative viability (SYO-1; 0.1235 µM): 0.733 ± 0.071
- relative viability (SYO-1; 0.3704 µM): 0.725 ± 0.056
- relative viability (SYO-1; 1.111 µM): 0.687 ± 0.056
- relative viability (SYO-1; 3.333 µM): 0.652 ± 0.018
- relative viability (SYO-1; 10 µM): 0.635 ± 0.028
- relative viability (SW982; 0.00017 µM): 0.989 ± 0.025
- relative viability (SW982; 0.00051 µM): 0.978 ± 0.045
- relative viability (SW982; 0.00152 µM): 0.98 ± 0.026
- relative viability (SW982; 0.00457 µM): 1 ± 0.015
- relative viability (SW982; 0.01372 µM): 0.985 ± 0.015
- relative viability (SW982; 0.04115 µM): 0.979 ± 0.012
- relative viability (SW982; 0.1235 µM): 0.992 ± 0.02
- relative viability (SW982; 0.3704 µM): 0.968 ± 0.071
- relative viability (SW982; 1.111 µM): 0.715 ± 0.027
- relative viability (SW982; 3.333 µM): 0.511 ± 0.016
- relative viability (SW982; 10 µM): 0.438 ± 0.041
